Source: article PMC6131557, “Selective Cytotoxicity of Dihydroorotate Dehydrogenase Inhibitors to Human Cancer Cells Under Hypoxia and Nutrient-Deprived Conditions” (Frontiers in Pharmacology, 2018)
Where two headings read alike, the source gives them in different places.

Experiments:
[1] = system: A549; assay: 39-cancer cell panel assay: A549; format: cell-based; conditions: Homo sapiens, Lu
[2] = system: ACHN; assay: 39-cancer cell panel assay: ACHN; format: cell-based; conditions: Homo sapiens, Re
[3] = system: PC-3; assay: 39-cancer cell panel assay: PC-3; format: cell-based; conditions: Homo sapiens, Pro
[4] = system: HBC-4; assay: 39-cancer cell panel assay: HBC-4; format: cell-based; conditions: Homo sapiens, HBC4, Br
[5] = system: HCT-116; assay: 39-cancer cell panel assay: HCT-116; format: cell-based; conditions: Homo sapiens, Co
[6] = system: SF-268; assay: 39-cancer cell panel assay: SF-268; format: cell-based; conditions: Homo sapiens, CNS
[7] = system: OVCAR-3; assay: 39-cancer cell panel assay: OVCAR-3; format: cell-based; conditions: Homo sapiens, Ov
[8] = system: SK-OV-3; assay: 39-cancer cell panel assay: SK-OV-3; format: cell-based; conditions: Homo sapiens
[9] = system: MCF-7; assay: 39-cancer cell panel assay: MCF-7; format: cell-based; conditions: Homo sapiens, MCF7, Br
[10] = system: NCI-H460; assay: 39-cancer cell panel assay: NCI-H460; format: cell-based; conditions: Homo sapiens, Lu
[11] = system: U251; assay: 39-cancer cell panel assay: U251; format: cell-based; conditions: Homo sapiens, U-251, CNS
[12] = system: HCT-15; assay: 39-cancer cell panel assay: HCT-15; format: cell-based; conditions: Homo sapiens, Co
[13] = system: DU-145; assay: 39-cancer cell panel assay: DU-145; format: cell-based; conditions: Homo sapiens, Pro
[14] = system: MKN1; assay: 39-cancer cell panel assay: MKN1; format: cell-based; conditions: Homo sapiens, MKN-1, St
[15] = system: NCI-H522; assay: 39-cancer cell panel assay: NCI-H522; format: cell-based; conditions: Homo sapiens, Lu
[16] = system: MKN74; assay: 39-cancer cell panel assay: MKN74; format: cell-based; conditions: Homo sapiens, MKN-74, St
[17] = system: LOX-IMVI; assay: 39-cancer cell panel assay: LOX-IMVI; format: cell-based; conditions: Homo sapiens, Me
[18] = system: MKN45; assay: 39-cancer cell panel assay: MKN45; format: cell-based; conditions: Homo sapiens, MKN-45, St
[19] = system: SF-295; assay: 39-cancer cell panel assay: SF-295; format: cell-based; conditions: Homo sapiens, CNS
[20] = system: St-4; assay: 39-cancer cell panel assay: St-4; format: cell-based; conditions: Homo sapiens
[21] = system: MDA-MB-231; assay: 39-cancer cell panel assay: MDA-MB-231; format: cell-based; conditions: Homo sapiens, Br
[22] = system: DMS114; assay: 39-cancer cell panel assay: DMS114; format: cell-based; conditions: Homo sapiens, DMS-114, Lu
[23] = target: Complexes I–III; assay: NADH-cytochrome c reductase (complexes I–III) activity, bovine mitochondria; format: biochemical
Experimental: (§1) Recombinant human DHODH was purified, crystallized, and assayed as previously described ([Inaoka et al., 2016]) without modification. Bovine mitochondrial fractions were prepared as previously described ([Kita et al., 1988]) and NADH dehydrogenase (complex I), succinate:quinone reductase (complex II), quinol oxidase (complexes III–IV), NADH-cytochrome c reductase (complexes I–III), and succinate-cytochrome c (complexes II–III) activities were assayed following an established method ([Takamiya et al., 1986]; [Miyadera et al., 2001]; [Matsumoto et al., 2008]; [Kido et al., 2010]; [Nihashi et al., 2017]).

[24] = system: DLD-1 cells; assay: Cytotoxicity assay (Cell Counting Kit-8 / WST-8) on DLD-1 cells; format: cell-based, human; conditions: Homo sapiens
Experimental: (§2) For hypoxia and nutrient-deprived culture conditions, cells were incubated under 1% oxygen in glucose and glutamine-free DMEM (Gibco) without FBS.
(§3) DLD-1 or HDF cells were seeded at 2.5 × 10^4 cells/well on a 96-well plate with normal medium, and cultured overnight under normal culture condition. The cells were washed with PBS and the medium was replaced to either normal medium or glucose and glutamine-free DMEM without FBS. Test compounds or DMSO as a control were added to the wells. The cells in normal medium were cultured under normal culture conditions, while cells in nutrient-deprived medium were cultured under hypoxia condition. After 24 or 48 h incubation, the cells were washed with PBS, 100 μl of fresh normal medium, and 10 μl of Cell Counting Kit-8 solution (Donjindo, Japan) was added to each well. After 3 h incubation under normal culture condition, the absorbance was measured at 450 nm using SpectraMax M2e-TUY microplate reader (Molecular Devices). Cell viability of test wells was calculated based on absorbance of control wells containing DMSO according to manufacturer’s protocol.

[25] = system: OVCAR-5; assay: 39-cancer cell panel assay: OVCAR-5; format: cell-based; conditions: Homo sapiens, Ov
[26] = system: MKN28; assay: 39-cancer cell panel assay: MKN28; format: cell-based; conditions: Homo sapiens, MKN-28, St
[27] = system: SF-539; assay: 39-cancer cell panel assay: SF-539; format: cell-based; conditions: Homo sapiens, CNS
[28] = system: OVCAR-4; assay: 39-cancer cell panel assay: OVCAR-4; format: cell-based; conditions: Homo sapiens, Ov
[29] = system: BSY-1; assay: 39-cancer cell panel assay: BSY-1; format: cell-based; conditions: Homo sapiens, Br
[30] = system: NCI-H23; assay: 39-cancer cell panel assay: NCI-H23; format: cell-based; conditions: Homo sapiens, Lu
[31] = target: T1, human dihydroorotate dehydrogenase (HsDHODH) (Homo sapiens, UniProt Q02127); assay: Inhibition of recombinant human DHODH enzyme activity; format: biochemical; conditions: for IC50: recombinant human DHODH
T1 construct: made in house

[32] = system: OVCAR-8; assay: 39-cancer cell panel assay: OVCAR-8; format: cell-based; conditions: Homo sapiens, Ov
[33] = system: HDF cells; assay: Cytotoxicity assay (Cell Counting Kit-8 / WST-8) on HDF cells; format: cell-based; conditions: Homo sapiens
Experimental: as §2, §3

[34] = system: SNB-75; assay: 39-cancer cell panel assay: SNB-75; format: cell-based; conditions: Homo sapiens, CNS
[35] = system: KM-12; assay: 39-cancer cell panel assay: KM-12; format: cell-based, human; conditions: Co
[36] = system: NCI-H226; assay: 39-cancer cell panel assay: NCI-H226; format: cell-based; conditions: Homo sapiens, Lu
[37] = system: Complex I; assay: NADH dehydrogenase (complex I) activity, bovine mitochondria; format: biochemical; conditions: at 5 μM
Experimental: as §1

[38] = system: HCC2998; assay: 39-cancer cell panel assay: HCC2998; format: cell-based; conditions: Homo sapiens, HCC 2998, Co
[39] = system: DMS273; assay: 39-cancer cell panel assay: DMS273; format: cell-based; conditions: Homo sapiens, DMS-273, Lu
[40] = target: T2, Complex III (Bos taurus, UniProt P00157); assay: Quinol oxidase (complex III) activity, bovine mitochondria; format: biochemical; conditions: ubiquinol oxidase activity
T2 construct: from tissue; host or cells: bovine mitochondrial fraction / sub-mitochondrial particles

[41] = system: MKN7; assay: 39-cancer cell panel assay: MKN7; format: cell-based; conditions: Homo sapiens, MKN-7, St
[42] = system: HBC-5; assay: 39-cancer cell panel assay: HBC-5; format: cell-based; conditions: Homo sapiens, HBC5, Br
[43] = system: RXF-631L; assay: 39-cancer cell panel assay: RXF-631L; format: cell-based; conditions: Homo sapiens, Re
[44] = system: SNB-78; assay: 39-cancer cell panel assay: SNB-78; format: cell-based; conditions: Homo sapiens, CNS
[45] = system: HT-29; assay: 39-cancer cell panel assay: HT-29; format: cell-based; conditions: Homo sapiens, Co
[46] = target: Complex II–III; assay: Succinate-cytochrome c reductase (complexes II–III) activity, bovine mitochondria; format: biochemical
Experimental: as §1

[47] = target: T3, Complex II (Bos taurus, UniProt P35720+Q3T189+Q95123); assay: Succinate:quinone reductase (complex II) activity, bovine mitochondria; format: biochemical
T3 construct: from tissue; host or cells: bovine mitochondrial fraction / sub-mitochondrial particles

[48] = system: mammalian complex III; parameters: method as in Berry et al., 2010; conditions: ref Berry et al., 2010; read-out: IC50 against mammalian complex III; cited from earlier work
[49] = purified enzyme fixed at 10 nM, read-out: IC50 (nM), inhibition of human DHODH

T1 sequence (Q02127 whole entry): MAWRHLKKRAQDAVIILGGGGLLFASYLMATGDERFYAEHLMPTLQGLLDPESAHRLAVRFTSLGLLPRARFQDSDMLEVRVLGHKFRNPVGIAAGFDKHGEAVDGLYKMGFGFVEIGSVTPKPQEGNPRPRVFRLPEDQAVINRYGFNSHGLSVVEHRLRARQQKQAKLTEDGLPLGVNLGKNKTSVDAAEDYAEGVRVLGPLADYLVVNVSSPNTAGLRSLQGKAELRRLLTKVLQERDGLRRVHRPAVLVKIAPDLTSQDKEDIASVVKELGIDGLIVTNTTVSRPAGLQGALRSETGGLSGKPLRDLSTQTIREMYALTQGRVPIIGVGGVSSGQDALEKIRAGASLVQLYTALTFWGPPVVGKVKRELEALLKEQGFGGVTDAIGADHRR
T3 sequence (P31039 45-665 partner limits assumed): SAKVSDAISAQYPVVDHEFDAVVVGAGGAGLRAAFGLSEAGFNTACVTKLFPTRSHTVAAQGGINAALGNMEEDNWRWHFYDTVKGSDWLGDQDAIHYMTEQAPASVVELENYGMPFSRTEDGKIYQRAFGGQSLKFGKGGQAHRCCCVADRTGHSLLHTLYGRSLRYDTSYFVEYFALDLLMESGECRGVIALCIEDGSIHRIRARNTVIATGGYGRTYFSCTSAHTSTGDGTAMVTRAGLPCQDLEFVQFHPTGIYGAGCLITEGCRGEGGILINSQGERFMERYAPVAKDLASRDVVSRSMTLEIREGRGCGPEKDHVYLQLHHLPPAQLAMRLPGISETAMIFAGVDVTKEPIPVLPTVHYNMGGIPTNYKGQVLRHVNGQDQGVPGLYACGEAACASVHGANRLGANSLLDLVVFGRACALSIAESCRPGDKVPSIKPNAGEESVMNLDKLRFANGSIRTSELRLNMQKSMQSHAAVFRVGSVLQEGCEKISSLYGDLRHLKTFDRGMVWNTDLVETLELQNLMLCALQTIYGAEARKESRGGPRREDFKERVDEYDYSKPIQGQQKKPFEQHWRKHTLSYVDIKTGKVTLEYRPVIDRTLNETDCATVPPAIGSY
T3 sequence (Q3T189 29-280): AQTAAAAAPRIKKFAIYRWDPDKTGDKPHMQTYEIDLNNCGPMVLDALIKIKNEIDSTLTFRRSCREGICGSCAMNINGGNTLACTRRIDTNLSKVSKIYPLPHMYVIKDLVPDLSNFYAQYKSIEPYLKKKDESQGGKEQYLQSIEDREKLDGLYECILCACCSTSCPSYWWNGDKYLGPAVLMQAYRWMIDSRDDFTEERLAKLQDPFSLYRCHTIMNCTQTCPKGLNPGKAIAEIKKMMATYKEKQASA
T3 sequence (P35720 30-169): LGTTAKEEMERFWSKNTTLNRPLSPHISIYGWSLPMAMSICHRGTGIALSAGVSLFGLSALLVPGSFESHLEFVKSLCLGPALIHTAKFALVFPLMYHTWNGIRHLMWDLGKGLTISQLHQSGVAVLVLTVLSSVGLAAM
T3 sequence (Q95123 56-158): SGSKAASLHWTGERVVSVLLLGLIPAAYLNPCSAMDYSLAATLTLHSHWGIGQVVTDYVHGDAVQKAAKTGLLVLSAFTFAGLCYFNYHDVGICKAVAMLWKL

COC(=O)/C(C)=C/CC/C(C)=C/Cc1c(O)c(Cl)c(C)c(C=O)c1O [Compound 9]
GI50 [1]: 4.7 µM | GI50 [2]: 9.9 µM | GI50 [3]: 22 µM | GI50 [4]: 5.6 µM | GI50 [5]: 2.5 µM | GI50 [6]: 8.1 µM | GI50 [7]: 5.3 µM | GI50 [8]: 11 µM | GI50 [9]: 7.3 µM | GI50 [10]: 4.3 µM | GI50 [11]: 0.97 µM | GI50 [12]: 0.83 µM | GI50 [13]: 10 µM | GI50 [14]: 14 µM | GI50 [15]: 5.3 µM | GI50 [16]: 14 µM | GI50 [17]: 2.1 µM | GI50 [18]: 14 µM | GI50 [19]: 11 µM | GI50 [20]: 7.5 µM | GI50 [21]: 14 µM | GI50 [22]: 15 µM | IC50 [23]: 1 ± 0.02 µM | IC50 ([24]; read-out: IC50 (μM) DLD-1 (24 h) Hypoxia nutrient (-), DLD-1, 24 h, hypoxia (1% oxygen), nutrient (-)): 1.6 ± 0.42 µM | IC50 ([24]; read-out: IC50 (μM) DLD-1 (24 h) Normoxia nutrient (+), DLD-1, 24 h, normoxia, nutrient (+)): > 100 µM | IC50 ([24]; DLD-1, 48 h, hypoxia (1% oxygen), nutrient (-), read-out: IC50 (μM) DLD-1 (48 h) Hypoxia nutrient (-)): 0.67 ± 0.066 µM | IC50 ([24]; DLD-1, 48 h, normoxia, nutrient (+), read-out: IC50 (μM) DLD-1 (48 h) Normoxia nutrient (+)): > 100 µM | GI50 [25]: 12 µM | GI50 [26]: 12 µM | GI50 [27]: 0.54 µM | GI50 [28]: 11 µM | GI50 [29]: 27 µM | GI50 [30]: 7.8 µM | IC50 [31, 49]: ~5 nM | GI50 [32]: 9.1 µM | IC50 ([33]; read-out: IC50 (μM) HDF (24 h) Hypoxia nutrient (-), hypoxia (1% oxygen), nutrient (-)): 3.1 ± 0.19 µM | IC50 ([33]; read-out: IC50 (μM) HDF (24 h) Normoxia nutrient (+), normoxia, nutrient (+)): > 100 µM | GI50 [34]: 9.7 µM | GI50 (μM) KM-12 [35]: 6.4 µM | GI50 [36]: 13 µM | Inhibition (%) Complex I [37]: 7.6 ± 4.2% | GI50 [38]: 17 µM | GI50 [39]: 3 µM | inhibition at 5 µM [40]: > 80% | GI50 [41]: 13 µM | GI50 [42]: 28 µM | GI50 [43]: 8.4 µM | GI50 [44]: 8.8 µM | GI50 [45]: 6.5 µM | IC50 [46]: 5.7 ± 0.37 µM | inhibition at 5 µM [47]: 5.3 ± 4.1%

CC(/C=C/[C@@]1(C)[C@H](C)CCC(=O)[C@@H]1C)=C\Cc1c(O)c(Cl)c(C)c(C=O)c1O [Compound 10, Ascochlorin]
IC50 [23]: 0.0033 ± 0.0001 µM | inhibition at 1 µM ([31]; at 1,000 nM, read-out: Inhibition of HsDHODH activity (value in parentheses)): 33% | IC50 ([31]; Table 6, read-out: IC50 (μM) HsDHODH): 2300 ± 1900 nM | IC50 [31, 49]: > 1000 nM | IC50 [48]: 0.013 µM | Inhibition (%) Complex I [37]: 6.8 ± 4.1% | inhibition at 5 µM [40]: 94 ± 2.4% | IC50 [46]: 0.0069 ± 0.0002 µM | inhibition at 5 µM [47]: 3.6 ± 8.5%
